Publication PMC11513923, “Discovery of ZLC491 as a Potent, Selective, and Orally Bioavailable CDK12/13 PROTAC Degrader” (Journal of Medicinal Chemistry, 2024)
Entries after “also recorded” stand apart in the source; their conditions may differ. Where two headings read alike, the source gives them in different places. Each block holds one compound with its values, some of them ahead of it.

Legend:
[1] = parameters: method as in doi:10.1200/JCO.2020.38.15_suppl.3500, PMID 26200936; details: cited from earlier work
MDA-MB-231 cells = test: Drug combination assay with ZLC491; type: cell-based, human
Experimental: (A) Transcription level of DDR genes in MDA-MB-231 cells determined by RT-qPCR upon the treatment with vehicle or ZLC491 at different doses for 12 h, ROR1 was used as a negative control; (B) immunoblotting of DDR proteins in MDA-MB-231 cells after the treatment of ZLC491 at different doses for 48 h; (C) cell antiproliferative activity of ZLC491 in multiple TNBC cells as well as several noncancerous cells. Cells were treated with the compound for 5 days; (D,E) antiproliferative potency of cisplatin or olaparib alone or combined with ZLC491 at different doses in MDA-MB-231 cells for 5 days. Data are plotted using the percentage of absorbance relative to DMSO controls. (F) IC50 values and combination index (CI) in drug combination assay. In this model, CI scores estimate the interaction between the two drugs. If CI < 1, the drugs have a synergistic effect and if CI > 1, the drugs have an antagonistic effect. CI = 1 means the drugs have an additive effect. ^aThe drug combination in the table refers to the starting concentration of the two combined drugs, that would both go through serial dilution when treating cells.
Tested cells were plated in 96-well or 384-well plates and incubated at 37 °C with or without 5% CO2. […] Cell proliferation was measured 5 days after compound treatment using Cell Counting Kit-8 (Selleck) according to the manufacturer’s instructions. […]

CDK12/13 = test: Immunoblotting of CDK12/13 in MDA-MB-231 cells (time course, negative control, series comparison); type: cell-based, human; details: 1 μM, 10 h
Experimental: (§1) To further characterize the compound, we determined the half-degradation concentration (DC50) values of ZLC491 in MDA-MB-231 cells. […] We also treated MDA-MB-231 cells with 1 μM ZLC491 at various time points.
(§2) (A) Immunoblotting of CDK12 and CDK13 in MDA-MB-231 cells treated with increasing concentrations of ZLC491 for 15 h (left). Percent remaining CDK12 and CDK13 proteins were plotted for DC50 determination (right). Protein levels were quantified using ImageJ and normalized to corresponding α-tubulin, then plotted using Graphpad Prism 8.0. The data were representative of three independent experiments; (B) immunoblotting of CDK12 and CDK13 proteins in MDA-MB-231 cells treated with ZLC491 for various time points; immunoblotting of CDK12 and CDK13 in HCC38 (C) and MDA-MB-436 (D) cells treated with increasing concentrations of ZLC491 for 15 h. α-Tubulin was used as a loading control. TEXT PRINTED IN THE PICTURE: (A) ZLC491: MDA-MB-231: CDK12 DC50 = 0.032μM; MDA-MB-231: CDK13 DC50 = 0.028μM DOUBTS OF THE COPYIST ABOUT THIS PICTURE: ZLC491, CDK12 DC50: 0.032 read from small print, the digits 3 and 2 are uncertain / ZLC491, CDK13 DC50: 0.028 read from small print, the last digit may be 8, 6 or 3
Figure 4 ZLC491 induced CDK12/13 degradation in a CRBN- and proteasome-dependent fashion. […]

[2] = system: TNBC cells and noncancerous cells; test: Cell proliferation assay of the negative control in multiple TNBC and noncancerous cells; type: cell-based, human; details: multiple TNBC and noncancerous cell lines, 5 days
Experimental: The antiproliferative effects of ZLC491 against TNBC cells were also evaluated. […] We thus investigated the synergistic effects of ZLC491 with DNA cross-linker cisplatin.
Tested cells were plated in 96-well or 384-well plates and incubated at 37 °C with or without 5% CO2. After overnight incubation, serial dilutions of compounds were added to the plate. Cell proliferation was measured 5 days after compound treatment using Cell Counting Kit-8 (Selleck) according to the manufacturer’s instructions.
Figure S3. Immunoblotting of CCNK in MDA-MB-231 cells treated with increasing concentrations of ZLC491 for 15 h.
Figure S4. Cell antiproliferative activity of ZLC491N in multiple TNBC cells as well as noncancerous cells. Cells were treated with the compound for 5 days. […]

[3] = parameters: method as in PMID 35938508; details: rats; cited from earlier work
CDK12 = CDK12 (Homo sapiens, UniProt Q9NYV4); test: CDK12 degradation in MDA-MB-231 cells by immunoblotting; type: cell-based; parameters: Immunoblotting of CDK12 and CDK13 in MDA-MB-231 cells treated with increasing concentrations of ZLC491 for 15 h; endogenous in cells; host or cells: MDA-MB-231; details: MDA-MB-231 cells, 0.3 μM, 15 h, immunoblotting, normalized against α-tubulin
Experimental: (§3) The degradation efficiency of the new molecules was assessed by immunoblotting after treatment with the compounds at 0.3 μM in MD-MBA-231 cells for 15 h.
as §1, §2
(§4) Generally, the tested cells were washed by ice-cold PBS buffer (Gibco) and lysed with an SDS lysis buffer (62.5 mM Tris, 2% w/v SDS, 10 glycerol, 50 mM DTT, 0.01% w/v bromophenol blue) on ice, after which the protein lysate samples were collected to 1.5 mL microcentrifuge tubes and treated with ultrasonic for 10 s, following with a 100 °C incubation for 10 min and a 4 °C centrifugation of 12000 rpm for 10 min. An equal amount of protein was loaded to 4–8% Bis-Tris gels and underwent an SDS-PAGE electrophoresis at 55V for 30 min and 95V for 90 min. Proteins on gels were then transferred to a polyvinylidene difluoride (PVDF) membrane (Bio-Rad) with a wet electro transfer system (Bio-Rad). The PVDF membrane was cut into bands and incubated in a blocking reagent (5% defatted milk powder dissolved in TBST) at room temperature for 1–2 h. Incubate membrane and primary antibody (at the appropriate dilution and diluent as recommended in the product webpage) at 4 °C for 12–14 h, followed with three times washes by TBST. The washed membranes were incubated in a secondary antibody solution (HRP-linked antirabbit IgG or antimouse IgG (CST), 1:2000 diluted into TBST) at room temperature for 2 h. Membranes were photographed in Amersham Imager 800 system using StarSignal plus regent (GenStar) or Omni-ECL reagent (EpiZyme). Compounds MG132, MLN4924, Bafilomycin A1 and pomalidomide were purchased from MedChemExpress (MCE) LLC.

CDK13 = biological target: T1, CDK13 (Homo sapiens, UniProt Q14004); test: CDK13 degradation in MDA-MB-231 cells by immunoblotting; type: cell-based; details: MDA-MB-231 cells, 0.3 μM, 15 h, immunoblotting, normalized against α-tubulin;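 further: percent of CDK13 protein degraded relative to DMSO control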
T1 construct: Immunoblotting of CDK12 and CDK13 in MDA-MB-231 cells treated with increasing concentrations of ZLC491 for 15 h; endogenous in cells; host or cells: MDA-MB-231
Experimental: as §3, §1, §2, §4

Chain of CDK12 (Q9NYV4 whole entry): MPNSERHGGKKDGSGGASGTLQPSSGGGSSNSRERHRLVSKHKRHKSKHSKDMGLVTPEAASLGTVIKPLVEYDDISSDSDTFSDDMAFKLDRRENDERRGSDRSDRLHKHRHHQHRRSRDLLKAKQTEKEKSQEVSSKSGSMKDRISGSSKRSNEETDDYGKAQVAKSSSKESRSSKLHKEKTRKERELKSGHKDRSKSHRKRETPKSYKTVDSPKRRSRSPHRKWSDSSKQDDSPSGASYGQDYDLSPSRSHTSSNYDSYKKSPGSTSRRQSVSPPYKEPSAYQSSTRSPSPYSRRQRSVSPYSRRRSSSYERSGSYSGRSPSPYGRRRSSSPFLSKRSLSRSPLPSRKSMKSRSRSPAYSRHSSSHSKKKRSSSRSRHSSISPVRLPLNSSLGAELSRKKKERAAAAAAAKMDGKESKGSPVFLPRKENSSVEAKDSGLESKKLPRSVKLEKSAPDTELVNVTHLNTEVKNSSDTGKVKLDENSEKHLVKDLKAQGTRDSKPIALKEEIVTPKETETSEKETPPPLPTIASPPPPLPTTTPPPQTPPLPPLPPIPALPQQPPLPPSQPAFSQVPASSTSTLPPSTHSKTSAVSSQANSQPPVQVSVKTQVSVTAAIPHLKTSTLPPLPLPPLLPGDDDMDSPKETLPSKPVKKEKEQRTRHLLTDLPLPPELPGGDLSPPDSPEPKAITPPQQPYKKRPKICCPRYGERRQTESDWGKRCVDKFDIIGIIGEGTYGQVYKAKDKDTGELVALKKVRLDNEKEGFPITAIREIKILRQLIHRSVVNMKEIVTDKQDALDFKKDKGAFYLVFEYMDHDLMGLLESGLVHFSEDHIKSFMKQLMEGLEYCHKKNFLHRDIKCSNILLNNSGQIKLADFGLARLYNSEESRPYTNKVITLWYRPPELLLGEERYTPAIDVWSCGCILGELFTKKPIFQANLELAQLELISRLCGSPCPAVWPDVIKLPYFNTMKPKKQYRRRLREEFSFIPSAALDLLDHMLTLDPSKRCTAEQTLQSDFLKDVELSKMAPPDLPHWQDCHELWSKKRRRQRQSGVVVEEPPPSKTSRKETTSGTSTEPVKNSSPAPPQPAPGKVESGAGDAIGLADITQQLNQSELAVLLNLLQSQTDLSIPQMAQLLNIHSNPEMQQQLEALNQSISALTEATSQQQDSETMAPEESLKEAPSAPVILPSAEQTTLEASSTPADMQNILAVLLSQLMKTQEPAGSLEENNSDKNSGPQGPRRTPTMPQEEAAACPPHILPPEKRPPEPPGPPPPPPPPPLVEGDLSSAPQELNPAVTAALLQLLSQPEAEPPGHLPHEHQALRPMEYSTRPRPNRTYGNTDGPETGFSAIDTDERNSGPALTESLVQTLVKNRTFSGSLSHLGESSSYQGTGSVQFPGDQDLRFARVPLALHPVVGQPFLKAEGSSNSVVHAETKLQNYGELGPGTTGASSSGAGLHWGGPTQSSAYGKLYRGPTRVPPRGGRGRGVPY
Chain of CDK12 (O75909 whole entry partner): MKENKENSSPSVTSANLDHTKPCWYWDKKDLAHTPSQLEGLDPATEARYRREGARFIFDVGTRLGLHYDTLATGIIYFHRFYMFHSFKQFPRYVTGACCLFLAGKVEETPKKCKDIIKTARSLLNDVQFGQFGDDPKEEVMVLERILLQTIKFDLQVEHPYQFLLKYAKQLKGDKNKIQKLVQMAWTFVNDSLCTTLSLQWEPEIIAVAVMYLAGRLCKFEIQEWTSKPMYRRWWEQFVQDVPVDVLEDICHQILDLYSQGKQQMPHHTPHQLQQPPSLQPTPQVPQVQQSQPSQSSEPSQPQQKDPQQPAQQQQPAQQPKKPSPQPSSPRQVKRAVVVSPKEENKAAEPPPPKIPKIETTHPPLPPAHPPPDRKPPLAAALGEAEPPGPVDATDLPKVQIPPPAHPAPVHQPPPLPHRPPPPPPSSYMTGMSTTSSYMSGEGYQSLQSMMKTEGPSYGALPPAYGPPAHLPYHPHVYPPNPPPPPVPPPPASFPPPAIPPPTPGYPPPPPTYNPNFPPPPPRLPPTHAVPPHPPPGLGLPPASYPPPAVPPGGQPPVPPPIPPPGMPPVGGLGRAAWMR
T1 sequence (Q14004 whole entry): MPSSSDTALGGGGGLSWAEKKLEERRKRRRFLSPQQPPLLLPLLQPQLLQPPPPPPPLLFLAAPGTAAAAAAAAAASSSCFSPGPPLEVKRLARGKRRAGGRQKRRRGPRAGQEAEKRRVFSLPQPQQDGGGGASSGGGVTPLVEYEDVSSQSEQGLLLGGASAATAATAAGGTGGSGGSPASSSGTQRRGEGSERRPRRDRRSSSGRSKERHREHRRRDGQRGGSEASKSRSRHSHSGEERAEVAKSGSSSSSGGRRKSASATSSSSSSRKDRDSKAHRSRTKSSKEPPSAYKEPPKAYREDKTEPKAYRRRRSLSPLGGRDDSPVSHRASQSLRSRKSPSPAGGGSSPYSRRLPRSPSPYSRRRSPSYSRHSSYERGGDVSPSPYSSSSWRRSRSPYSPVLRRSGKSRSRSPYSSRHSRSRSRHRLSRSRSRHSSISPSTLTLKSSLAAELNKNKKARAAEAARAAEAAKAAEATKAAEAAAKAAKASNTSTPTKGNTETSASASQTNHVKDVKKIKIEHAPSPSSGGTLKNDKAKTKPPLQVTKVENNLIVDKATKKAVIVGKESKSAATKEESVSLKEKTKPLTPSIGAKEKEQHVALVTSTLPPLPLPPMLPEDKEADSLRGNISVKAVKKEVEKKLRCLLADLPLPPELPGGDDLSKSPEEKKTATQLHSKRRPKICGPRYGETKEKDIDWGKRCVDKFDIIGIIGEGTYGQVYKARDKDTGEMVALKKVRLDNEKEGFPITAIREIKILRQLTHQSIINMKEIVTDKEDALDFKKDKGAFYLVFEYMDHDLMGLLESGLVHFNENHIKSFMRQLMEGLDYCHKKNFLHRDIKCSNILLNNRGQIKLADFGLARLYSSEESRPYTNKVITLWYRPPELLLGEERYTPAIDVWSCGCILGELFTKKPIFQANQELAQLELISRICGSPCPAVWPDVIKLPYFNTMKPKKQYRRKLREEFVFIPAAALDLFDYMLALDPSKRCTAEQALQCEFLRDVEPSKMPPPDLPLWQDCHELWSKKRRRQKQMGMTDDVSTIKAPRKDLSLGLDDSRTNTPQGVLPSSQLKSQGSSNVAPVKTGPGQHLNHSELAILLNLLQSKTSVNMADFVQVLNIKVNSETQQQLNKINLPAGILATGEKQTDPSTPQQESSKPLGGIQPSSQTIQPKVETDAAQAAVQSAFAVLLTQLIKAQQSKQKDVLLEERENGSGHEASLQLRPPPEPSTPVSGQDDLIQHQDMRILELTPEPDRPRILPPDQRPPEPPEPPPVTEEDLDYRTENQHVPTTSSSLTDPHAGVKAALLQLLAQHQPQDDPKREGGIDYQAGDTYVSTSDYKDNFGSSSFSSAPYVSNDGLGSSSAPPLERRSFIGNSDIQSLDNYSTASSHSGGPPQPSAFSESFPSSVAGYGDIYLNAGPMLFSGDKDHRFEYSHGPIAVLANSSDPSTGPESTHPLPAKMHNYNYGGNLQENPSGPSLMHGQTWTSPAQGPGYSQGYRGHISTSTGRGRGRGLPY
T1 sequence (O75909 whole entry partner): as the sequence (O75909 whole entry partner) above

SMILES: N#Cc1ccc(O[C@H]2CC[C@H](NC(=O)c3ccc(N4CCC(CN5CCN(c6cc7c(cc6F)C(=O)N(C6CCC(=O)NC6=O)C7=O)CC5)CC4)nn3)CC2)cc1Cl (stereo partly drawn) [ARV-110]
oral bioavailability [1]: good oral bioavailability

SMILES: N.N.[Cl][Pt][Cl] [Cisplatin, cisplatin]
interaction with ZLC491 in dose–response assays (MDA-MB-231 cells; MDA-MB-231 cells, 5 days): potent synergy

IC50 (MDA-MB-231 cells; Homo sapiens, 120 h, drug A alone, starting concentration 25 μM, MDA-MB-231, 5 days, read-out: IC50 (μM), Drug A: ZLC491 25μM: 0μM): 7.24 µM
SMILES: O=C(c1cc(Cc2n[nH]c(=O)c3ccccc23)ccc1F)N1CCN(C(=O)C2CC2)CC1 [Olaparib, olaparib]

SMILES: CN1C(=O)CCC(N2C(=O)c3cc(F)c(N4CCC(N5CCN(c6ccc(N(C(=O)NCc7ccccc7)[C@H]7CC[C@H](Nc8ccc(C#N)cn8)CC7)cc6)CC5)CC4)cc3C2=O)C1=O (stereo partly drawn) [ZLC491N, 3-Benzyl-1-((1r,4r)-4-((5-cyanopyridin-2-yl)amino)cyclohexyl)-1-(4-(4-(1-(6-fluoro-2-(1-methyl-2,6-dioxopiperidin-3-yl)-1,3-dioxoisoindolin-5-yl)piperidin-4-yl)piperazin-1-yl)phenyl)urea]
degradative effect on CDK12/13 (CDK12/13): no degradative effect
antiproliferative effects [2]: no antiproliferative effects

Protein Degradation (%DMSO control, 0.3 μM) CDK12 (CDK12): 75%
Protein Degradation (%DMSO control, 0.3 μM) CDK13 (CDK13): 84%
SMILES: N#Cc1ccc(N[C@H]2CC[C@H](N(C(=O)NCc3ccccc3)c3ccc(N4CCN(C(=O)CNc5ccc6c(c5)C(=O)N(C5CCC(=O)NC5=O)C6=O)CC4)cc3)CC2)nc1 (stereo partly drawn) [compound 3]
clearance [3]: high
oral bioavailability [3]: not orally bioavailable; also recorded: nondetectable
